Experimental data published in patent US20230357249A1, “ANDROGEN RECEPTOR PROTEIN DEGRADERS WITH A TRICYCLIC CEREBLON LIGAND” (THE REGENTS OF THE UNIVERSITY OF MICHIGAN, priority 2020, published 2023).

Experiments:
AR protein [1] = experiment: AR protein degradation in MDA-MB-453 cells, Western blotting; format: cell-based; set-up: key to AR protein degradation MDA-MB-453 10 nM: A: >90% degradation (24 hr treatment); B: >50% degradation but <90% (24 hr treatment); C: >10% degradation but <50% (24 hr treatment); D: No significant degradation (24 hr treatment); conditions: 24 hr treatment
Protocol: (§1) The appropriate cell line, e.g., prostate cancer LNCaP, Vcap, or 22RV1 cell line, was treated with Compounds of the Disclosure as indicated. The treated cells were lysed with RIPA buffer. The AR level in the cell lysates was examined by western blotting and a specific AR antibody (ab194196, Abcam, Cambridge, MA 02139) with concentration of 1:20,000. GAPDH was used as a loading control.
(§2) Bands were quantified with ImageJ software. The relative numbers of each band obtained from normalization with its corresponding GAPDH level were compared with Prism 8 software. The DC50 values were produced from Prism 8, and the DC90 values were calculated with an equation=Bottom + (Top-Bottom)/(1+10^((LogEC50-X)*HillSlope) based on DC50 and Hillslope values.
(§3) The amount of AR protein degradation in VCap and MDA-MB-453 cells caused by representative Compounds of the Disclosure at the concentrations indicated is presented in Table 4, FIG. 1, and FIG. 2.

AR protein [2] = molecular target: T1, AR protein (Homo sapiens, UniProt P10275); experiment: AR protein degradation in VCaP cells, Western blotting; format: cell-based; conditions: 24 hr treatment
T1 construct: endogenous in cells; host or cells: VCaP
T1 sequence (P10275 1-920): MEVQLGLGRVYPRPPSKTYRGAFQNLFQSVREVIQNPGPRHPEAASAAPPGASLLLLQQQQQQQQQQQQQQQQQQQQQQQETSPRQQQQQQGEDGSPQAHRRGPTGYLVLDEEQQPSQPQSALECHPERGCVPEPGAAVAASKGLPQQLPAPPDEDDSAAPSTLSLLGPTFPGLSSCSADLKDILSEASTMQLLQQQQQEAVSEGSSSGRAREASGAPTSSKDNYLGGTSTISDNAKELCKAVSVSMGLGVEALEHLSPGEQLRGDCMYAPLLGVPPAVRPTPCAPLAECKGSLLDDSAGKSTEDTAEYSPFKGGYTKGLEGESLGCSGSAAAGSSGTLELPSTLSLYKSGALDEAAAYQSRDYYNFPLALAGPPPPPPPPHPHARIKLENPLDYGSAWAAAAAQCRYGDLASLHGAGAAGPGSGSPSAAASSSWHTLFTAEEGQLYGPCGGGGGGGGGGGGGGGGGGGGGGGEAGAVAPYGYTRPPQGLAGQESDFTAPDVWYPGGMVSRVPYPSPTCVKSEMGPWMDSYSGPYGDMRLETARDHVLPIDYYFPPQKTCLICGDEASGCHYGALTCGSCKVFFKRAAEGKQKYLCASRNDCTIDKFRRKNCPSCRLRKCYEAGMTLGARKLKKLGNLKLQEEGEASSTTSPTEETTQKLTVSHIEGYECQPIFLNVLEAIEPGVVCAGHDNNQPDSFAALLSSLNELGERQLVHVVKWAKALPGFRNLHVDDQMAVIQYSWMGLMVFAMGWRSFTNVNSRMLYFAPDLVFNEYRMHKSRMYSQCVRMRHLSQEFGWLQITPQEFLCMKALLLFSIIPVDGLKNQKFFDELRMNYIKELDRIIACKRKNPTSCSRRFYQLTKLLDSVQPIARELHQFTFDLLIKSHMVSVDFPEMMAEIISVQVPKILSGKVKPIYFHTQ
Protocol: as §1, §2, §3

| SMILES | AR protein degradation MDA-MB-453 10 nM (AR protein [1]) | AR protein degradation MDA-MB-453 100 nM (AR protein [1]) | percent AR protein degradation at 0.01 µM (AR protein [2]; 10 nM) [%] | percent AR protein degradation at 0.1 µM (AR protein [2]; 100 nM) [%] |
| --- | --- | --- | --- | --- |
| CC1(C)[C@H](Oc2ccc(C#N)c(Cl)c2)C(C)(C)[C@H]1N1Cc2cc(N3CCN(CC(=O)N4CCc5cc6c(cc5C4)C(=O)N(C4CCC(=O)NC4=O)C6=O)CC3)ccc2C1=O (stereo partly shown) [compound 1] | D | C (>10% degradation but <50% (24 hr treatment)) | – | – |
| CC1(C)[C@H](Oc2ccc(C#N)c(Cl)c2)C(C)(C)[C@H]1N1Cc2cc(N3CCN(CC(=O)N4Cc5cc6c(cc5C4)C(=O)N(C4CCC(=O)NC4=O)C6=O)CC3)ccc2C1=O (stereo partly shown) [compound 2] | D | C (>10% degradation but <50% (24 hr treatment)) | – | – |
| N#Cc1ccc(O[C@H]2CC[C@H](N3Cc4cc(N5CCN(CC(=O)N6CCc7cc8c(cc7C6)C(=O)N(C6CCC(=O)NC6=O)C8=O)CC5)ccc4C3=O)CC2)cc1Cl (stereo partly shown) [compound 3] | D | C (>10% degradation but <50% (24 hr treatment)) | – | – |
| N#Cc1ccc(O[C@H]2CC[C@H](N3Cc4cc(N5CCN(CC(=O)N6Cc7cc8c(cc7C6)C(=O)N(C6CCC(=O)NC6=O)C8=O)CC5)ccc4C3=O)CC2)cc1Cl (stereo partly shown) [compound 4] | B (>50% degradation but <90% (24 hr treatment)) | A (>90% degradation (24 hr treatment)) | – | – |
| CN(c1ccc(C#N)c(Cl)c1)[C@H]1CC[C@H](NC(=O)c2ccc(C3CCN(CC(=O)N4Cc5cc6c(cc5C4)C(=O)N(C4CCC(=O)NC4=O)C6)CC3)cc2)CC1 (stereo partly shown) [compound 328, N-((1r,4r)-4-((3-Chloro-4-Cyanophenyl)(Methyl)Amino)Cyclohexyl)-4-(1-(2-(6-(2,6-Dioxopiperidin-3-Yl)-5-Oxo-3,5,6,7-Tetrahydropyrrolo[3,4-F]Isoindol-2(1h)-Yl)-2-Oxoethyl)Piperidin-4-Yl)Benzamide] | – | – | > 90 | > 90 |
